Results reported in US8889378B2, “Cytochrome C synthesis inhibitors” (priority 2006, dated 2014).

Key:
[1] = system: system I cytochrome c biogenesis (heme acquisition); assay: Exogenous heme addition, E. coli ΔccmΔhemA (RK105) with system I, pRGK332 and pHPEX2; type: cell-based
Method: (§1) Cultures of RK105 (E. coli ΔccmΔhemA) harboring pRGK333 (system I), pRGK332 (cytochrome c4:6×His), and pHPEX2 (Varnado and Goodwin, 2004) or pRGK348 (system II) and pRGK332 were grown in LB overnight in the presence of 300 μM aminolevulinic acid (ALA). 100 mL cultures were started from the overnight culture with a 1% inoculum in LB devoid of ALA for two and one-half hours. After two and one-half hours, the 100 mL cultures had exhausted their cellular supply of ALA and required exogenous heme (or ALA) for further growth. The ALA exhausted cultures were divided into 5 mL aliquots to which IPTG (1 mM, to induce the synthesis of the system I proteins) and heme (0 μM to 100 μM) (Sigma) were added. It was discovered that heme at greater than 60 μM would precipitate over time with no IPTG (1 mM) present and at greater than 100 μM in the presence of IPTG. After one hour, arabinose (0.2% to induce the synthesis of cytochrome c4:6×His) was added and cultures were grown for an additional three hours. Cells were harvested and protein was extracted using B-PER as previously described (Feissner et al., 2006). […]
Heme stains were performed as described (Feissner et al., 2003) using SuperSignal Femto chemiluminescent substrate (Pierce). Heme stain quantitation used LOLITA II (Low Light Test Array; raytestUSA; Wilmington, N.C.) for standardization of light intensity detection on an LAS1000plus Luminescent Image Analyzer CCD camera system. […] Chemiluminescence from heme stains and Western blots were detected using an LAS-1000plus Luminescent Image Analyzer CCD camera system (Fujifilm). Protein concentrations were determined using the BCA assay (Pierce) using BSA as a standard. […] Protein concentrations were determined with the BCA assay kit (Pierce) using BSA as a standard.
To directly examine the difference in heme acquisition between systems I and II, varying concentrations of exogenous heme were supplied to E. coli ΔccmΔhemA, expressing ChuA with pRGK332 and either system plasmid. […] The cytochrome c4 acts as a trap, allowing quantitation of the levels of heme that have fluxed through each system. […]

[2] = system: system II (CcsBA) cytochrome c biogenesis (heme acquisition); assay: Exogenous heme addition, E. coli ΔccmΔhemA (RK105) with system II (CcsBA), chuA and pRGK332; type: cell-based; conditions: averaged over 3 trials, Hill curve fit, read-out: heme concentration at which holocytochrome c4:6×His levels reached 50% of maximum synthesis
Method: Cultures of RK105 (E. coli ΔccmΔhemA) harboring pRGK333 (system I), pRGK332 (cytochrome c4:6×His), and pHPEX2 (Varnado and Goodwin, 2004) or pRGK348 (system II) and pRGK332 were grown in LB overnight in the presence of 300 μM aminolevulinic acid (ALA). 100 mL cultures were started from the overnight culture with a 1% inoculum in LB devoid of ALA for two and one-half hours. After two and one-half hours, the 100 mL cultures had exhausted their cellular supply of ALA and required exogenous heme (or ALA) for further growth. The ALA exhausted cultures were divided into 5 mL aliquots to which IPTG (1 mM, to induce the synthesis of the system I proteins) and heme (0 μM to 100 μM) (Sigma) were added. […]
Heme stains were performed as described (Feissner et al., 2003) using SuperSignal Femto chemiluminescent substrate (Pierce). Heme stain quantitation used LOLITA II (Low Light Test Array; raytestUSA; Wilmington, N.C.) for standardization of light intensity detection on an LAS1000plus Luminescent Image Analyzer CCD camera system. […] Chemiluminescence from heme stains and Western blots were detected using an LAS-1000plus Luminescent Image Analyzer CCD camera system (Fujifilm). Protein concentrations were determined using the BCA assay (Pierce) using BSA as a standard. […] Protein concentrations were determined with the BCA assay kit (Pierce) using BSA as a standard. […]

[3] = Heme precipitation in culture medium; type: physicochemical
Method: as §1, with “2006). Cytochrome c4:6×His was purified from 200 μg of total protein over nickel affinity resin to eliminate free heme. 20 μL of each sample were subjected to SDS-PAGE, transferred to nitrocellulose, and heme stained as described above.” for “2006).”

[4] = system: E. coli ΔccmΔhemA; assay: Growth of E. coli ΔccmΔhemA on exogenous heme, without or with the heme porin ChuA (pHPEX2); type: cell-based
Method: FIG. 13. Growth of E. coli DccmDhemA with exogenous heme. Overnight cultures of E. coli DccmDhemA or containing pHPEX2 and (A) pRGK333 or (B) pRGK334 were diluted into LB broth without ALA or heme. The cultures were incubated aerobically at 37° C. for two and one-half hours to exhaust the cultures for ALA. Heme was added at the indicated concentrations when noted and growth (A600) was measured. For reference, the growth of E. coli Dccm (wild-type) containing either pRGK333 or pRGK334 is shown (t).
To determine if exogenous heme rather than ALA could support growth, an overnight culture of E. coli ΔccmΔhemA, supplemented with 300 μM ALA, was used to inoculate [1% (v/v)] fresh LB medium containing different concentrations of heme (0 μM to 100 μM).
Since the outer membranes of some strains of E. coli are poorly permeable to heme, the heme porin from pHPEX2 (Varnado and Goodwin, 2004) was expressed. The tetracycline-resistant pHPEX2 expresses the gene for the heme receptor (chuA) from E. coli O157:H7 using the IPTG-inducible lacUV5 promoter. ChuA is a member of a class of relatively nonspecific enterobacterial heme receptors that are TonB-dependent and facilitate heme acquisition from the environment and recognize free heme and heme bound to a variety of proteins (see FIG. 11). Growth of E. coli ΔccmΔhemA containing either pRGK333 or pRGK334 and pHPEX2 was dependant on exogenous heme (see FIG. 13). […] The pHPEX2 also facilitates the heme-dependent production of the B. pertussis c4:6×His when the plasmids with system I or system II are present (see below).

[5] = system: system I cytochrome c biogenesis; assay: Heme competition with ZnPPIX inhibition, E. coli Δccm with system I, ChuA and cytochrome c4:Pho; type: cell-based; conditions: grown with 12.5 μM ZnPPIX
Method: FIG. 22. Western blot (A: lanes 1-7) and heme stain (B: lanes 1-5) indicating ZnPPIX competes with heme. Overnight cultures of E. coli Dccm containing pRGK333, pRGK331, and pHPEX2 were diluted into fresh LB broth containing […] ZnPPIX and grown to mid-log phase. IPTG (1 mM) was added and incubation continued for 30 minutes. Heme was added and incubation continued for 30 minutes. Arabinose (0.2%) was added for three hours to induce synthesis of cytochrome c4:PhoA and soluble B-PER protein extracts were prepared. The concentrations ([…]) of ZnPPIX and heme are given above each lane. Above the panel pSysI is pRGK333, pc4:PhoA is cytochrome c4:PhoA, and Dccm is E. coli Dcam.
ZnPPIX is inhibiting downstream of holoCcmE since this “heme reservoir” is no longer available for cytochrome c4 biogenesis. The WWD containing protein CcmF may the target for ZnPPIX (see FIG. 11). If the target for ZnPPIX is a heme binding protein (site), then exogenous heme should compete with this inhibition (i.e. ZnPPIX binding). […] The same heme stained polypeptides were confirmed to be full length cytochrome c4:Pho fusion proteins by Western blot (FIG. 22A, lane 1-5). ZnPPIX is a specific inhibitor of c-type cytochrome biogenesis by either system I or system II, but heme is able to compete with ZnPPIX inhibition.

For iron protoporphyrin IX [heme], the “heme concentration at which maximum synthesis of holocytochrome c4:6×His occurs” value ([1]; system I) was “less than 10 μM”, the “apparent affinity for heme, system I versus system II” value ([1]; system I compared with system II) was “at least twenty fold higher” and the EC50 ([1]; system I, averaged over 4 trials, Hill curve fit, read-out: heme concentration restoring holocytochrome c4:6×His levels to 50% of maximum) was 1.9 µM. For the same substance, the EC50 [2] was 54.4 µM, the “heme concentration above which heme would precipitate over time” value ([3]; in the presence of IPTG) was “greater than 100 μM” and the “heme concentration above which heme would precipitate over time” value ([3]; no IPTG (1 mM) present) was “greater than 60 μM”. The “growth on exogenous heme” value ([4]; chuA (pHPEX2) expressed, pRGK333 or pRGK334) was “growth to near wild-type levels”, the “growth on exogenous heme” value ([4]; heme 0 μM to 100 μM, no heme porin) was “not detected until four to five days” and the “holocytochrome c4:6×His production on exogenous heme” value ([4]; no heme porin, system I or system II plasmid and c4:6×His reporter) was “no holocytochrome c4:6×His production was detected”. For the same substance, the “holocytochrome c4:Pho with increasing concentrations of additional heme” value [5] was “corresponding increase in holocytochrome c4:Pho”.
